What was measured:
DU-145 cells = assay: Cell growth of DU-145 cells (cell counting); assay type: cell-based, human; settings: DHMBA 10 μM, one to six days
Experimental: The PC-3 and DU-145 cells (the cell number of 1×10^5/in 1 ml of a culture fluid per hole using a 24-hole plate) were cultured in a DMEM culture fluid (containing 10% of FBS, 1% of P/S, and 1% of fungizone) containing the DHMBA (1 and 10 μM) under 5% of CO2, at 37° C., for one, two, three, four, and six days. […] After the culture, 0.1 ml of 0.05% trypsin-EDTA solution obtained by dissolving the cells adhering to the bottom surface of the culture dish in PBS (Thermo Fisher Scientific, Waltham, MA, USA) not containing Ca^2+/Mg^2+ was added, incubation was performed at 37° C. for two minutes to release the adhering cells, and 0.9 ml of the DMEM culture fluid containing 10% of FBS and 1% of P/S was added to stop the reaction. The cell number in the cell suspension was counted by the method described in the item of “Measurement of Cell Number.”
After the culture of the cells, 0.1 ml of 0.05% trypsin-EDTA solution obtained by dissolving the cells adhering to the bottom surface of the culture dish in PBS (Thermo Fisher Scientific, Waltham, MA, USA) not containing Ca^2+/Mg^2+ was added, incubation was performed at 37° C. for two minutes to release the adhering cells, and 0.9 ml of the DMEM culture fluid containing 10% of FBS and 1% of P/S was added to stop the reaction. The visible cells were counted by the Olympus MTV-3 microscope using a hemocytometer (Sigma-Aldrich).
FIG. 2(C) is a diagram in which the DU-145 cells (1×10^5 cells/per well of a 24-well plate) were cultured under 5% of CO2, at 37° C., for one to six days in a DMEM culture fluid (containing 10% of FBS, 1% of P/S, and 1% of fungizone) containing the DHMBA (10 μM).
In FIGS. 2(D) and 2(E), the DU-145 cells (1×10^5 cells/per well of a 24-well plate) were cultured under 5% of CO2, at 37° C., for three (FIG. 2D) and six (FIG. 2E) days in a DMEM culture fluid (containing 10% of FBS, 1% of P/S, and 1% of fungizone) containing the DHMBA (0.01, 0.1, 1, 10, 100, and 1000 μM). After the culture, the cells adhered to the dish were removed and counted. […] 1-way ANOVA, Tukey-Kramer post-test.

PC-3 cells = assay: Cell migration scratch assay, PC-3 cells; assay type: cell-based, human; settings: DHMBA 1, 10, 100, or 1000 μM, 48 hours
Experimental: The migration of the prostate cancer PC-3 and DU-145 cells was examined using a scratch assay. The PC-3 and DU-145 cells (the cell number of 2×10^5/in 1 ml of a culture fluid per hole using a 24-hole plate) were cultured in a DMEM culture fluid containing 10% of FBS, 1% of P/S, and 1% of fungizone under 5% of CO2, at 37° C., for 48 hours, and a straight line scratch was performed using a pipette tip (200 μl) when the cells reached confluence. Free cells were washed with PBS to be removed, the above-described culture fluid (containing 0.1, 1, 10, 100, or 1000 μM of the DHMBA) was added, and the cells were cultured for 48 hours. After the culture, intervals of cell-free parts were measured.
The PC-3 and DU-145 cells (the cell number of 2× 10^5/1 ml of a culture fluid per hole using a 24-hole plate) were cultured under 5% of CO2, at 37° C., for 48 hours in a DMEM culture fluid containing 10% of FBS, 1% of P/S, and 1% of fungizone, and a straight line scratch was performed using a pipette tip (200 μl) when the cells reached confluence. Free cells were washed with PBS to be removed, the above-described culture fluid (containing 0.1, 1, 10, 100, or 1000 μM of the DHMBA) was added, and the cells were cultured for 48 hours. After the culture, intervals of cell-free parts were measured. […]

For `COc1c(O)cc(CO)cc1O` [DHMBA, 3,5-dihydroxy-4-methoxybenzyl alcohol], the cell growth (DU-145 cells) was “inhibited” and the migration (PC-3 cells) was “significantly inhibited”.

From patent publication US20240350430A1, “GROWTH INHIBITOR OF METASTATIC HUMAN PROSTATE CANCER CELLS” (Watanabe Oyster Laboratory Co., Ltd., priority 2021, published 2024)
